“Also recorded” adds a separate entry of the source. Where two headings read alike, the source gives them in different places. Marks after values point to notes of the source that are not given here.
Legend:
[1] = K+ leakage from liposomes; assay type: biochemical; conditions: FIG. 4B; in words
Procedure: A chloroform solution containing 76 mg of POPC (for POPC LUVs) or a chloroform/meol (1/1) containing 38 mg of POPC and 38.5 mg POPG sodium salt (for POPC/POPG LUVs, POPC:POPG=1:1) was dried under reduced pressure to form a thin film, which was then […] with 2 mL aqueous buffer: (1) 10 mM HEPES, 150 mM KCl, pH 7.0 for K+ leakage assay; (2) 10 mM TES, 100 mM sodium citrate, 50 mM TbCl3, pH 7.0 for Tb3+ leakage assay; (3) 10 mM HEPES, 150 mM NaCl, pH 7.0 for peptide binding assay. After 20 cycles of freezing and thawing, the liposome suspension was extruded 21 times through a 100 nm polycarbonate membrane (LIPOSOFAST Mini Extrusion system, Avanti Polar Lipids; Whatman Nuclepore Track-Etch Membrane) at RT. Free K+ or Tb3+ were removed by gel filtration (ÄKTA FPLC with HIPREP™ 16/60 Sephacryl TM-S-500HR column) using Buffer A for (1) and (3) or Buffer B for (2) as the eluents. The lipid concentration was determined by the Stewart assay and the size of liposome was confirmed by Dynamic Light Scattering (DLS, DYNAPRO NANOSTAR, Wyatt, Santa Barbara, Calif.). After gel filtration the polydispersity of all liposome are below 20%.
The K+ leakage from liposomes was determined by a potassium ion selective electrode (K-ISE, Cole-Parmer, Vernon Hills, Ill.). […] Three minutes after each peptide addition, the K+ concentration was measured and reported as the K-ISE potential. […]

[2] = Peptide distribution in EYPC LUVs by Trp fluorescence; assay type: binding; conditions: peptide added to LUVs; in words
Procedure: The peptides distribution was determined by monitoring Trp fluorescence and the channel activity was determined by monitoring the proton leakage from LUVs using a pH sensitive fluorescence dye HPTS. […]

MCF-7 = test: MTT toxicity assay; assay type: cell-based, human
Procedure: (§1) Toxicity of gA-WT and gA-5 was tested against two human cancer cell lines, HeLa and MCF-7 (gifts from Professor Eranthie Weerapana at Boston College) by using the MTT assay as described in the protocol provided by Invitrogen.[5] HeLa cells (in DMEM high glucose media with 10% FBS, 1% Pen/Strep, 37° C., 5% CO2) and MCF-7 cells (in RPMI media with 10% FBS and 1% Pen/Strep, 37° C., 5% CO2) were grown to about 80% confluent before removed from the surface of a 20 cm petri-dish with […] with EDTA (3-5 mins, 37° C., 5% CO2). Cells were pelleted (3,500 rpm, 5 mins at 4° C.), and plated at 15,000 cells per well (100 μL per well), then incubated for 48 hrs before peptide addition.
(§2) Stock solutions of gA in DMSO with varied concentrations were prepared so that for each peptide concentration the total volume of DMSO addition was kept constant at 1% (v/v). For each peptide concentration, samples were set up as four replicates. Control wells were loaded with 1 μL of DMSO. After overnight incubation, cells were washed once with PBS before being incubated for 4 hrs with 110 μL of 12 mM 3-(4,5-Dimethylthiazol-2-yl)-2,5-diphenyltetrazolium bromide (MTT) dissolved in RPMI media. The MTT assay was quenched with 100 μL of 10% SDS in 0.01 M HCl and allowed to incubate overnight before absorbance at 570 nm was recorded. Wells were averaged and standard deviations determined for each peptide concentration. Data were normalized to the DMSO control to give % cell survival (see FIG. 3).

HeLa = test: MTT toxicity assay; assay type: cell-based, human
Procedure: as §1, §2

[3] = tested on: Streptococcus pyogenes (ATCC 19615)
[4] = Trp absorbance @ 280 nm; 10 mM PBS, pH 7.0, 1% DMSO; values taken from ref; cited from earlier work
[5] = Tb3+ leakage from liposomes, lipid not specified; assay type: biochemical; conditions: at peptide concentrations causing complete K+ release; in words
[6] = tested on: Staphylococcus aureus (ATCC 6538)
[7] = Peptide binding onto membranes (Trp fluorescence); conditions: negatively charged POPC/POPG vesicles; in words
[8] = tested on: human red blood cells (hRBCs); test: Haemoglobin release from human red blood cells; assay type: cell-based; conditions: red cells of human
Summary of the method: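 Washed fresh human RBCs at 1% (v/v) in PBS were incubated with 2-fold serial peptide dilutions (DMSO vehicle) for 1 h at 37 °C, then centrifuged. Haemoglobin in the supernatant was read at 415 nm. % hemolysis was taken relative to DMSO blank and 1% Triton X-100 complete lysis.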

[9] = Proton leakage from EYPC vesicles (HPTS); assay type: biochemical; conditions: peptide premixed with lipids; in words
Procedure: To confirm that lack of binding causes loss of membrane activity, we decided to premix the peptides and lipids in organic solvent and then dried out the mixture before hydration. Then, the peptides would be trapped into the bound form upon vesicle formation. The peptides distribution was determined by monitoring Trp fluorescence and the channel activity was determined by monitoring the proton leakage from LUVs using a pH sensitive fluorescence dye HPTS. Peptides 10, 12, 14K and 10, 12, 14 M gA were chosen to mix with neutral lipids EYPC.

CC(C)C[C@@H](NC(=O)[C@H](C)NC(=O)CNC(=O)[C@@H](NC=O)C(C)C)C(=O)N[C@@H](C)C(=O)N[C@@H](C(=O)N[C@H](C(=O)N[C@@H](C(=O)N[C@@H](Cc1c[nH]c2ccccc12)C(=O)N[C@H](CCCCN)C(=O)N[C@@H](Cc1c[nH]c2ccccc12)C(=O)N[C@H](CCCCN)C(=O)N[C@@H](Cc1c[nH]c2ccccc12)C(=O)N[C@H](CCCCN)C(=O)N[C@@H](Cc1c[nH]c2ccccc12)C(=O)NCCO)C(C)C)C(C)C)C(C)C (racemic) [gA-5, formyl-V-G-A-dL-A-dV-V-dV-W-dK-W-dK-W-dK-W-NHCH2CH2OH]
K+ leakage from negatively charged liposomes [1]: lack of K+ leakage | binding to EYPC LUVs [2]: neither peptides bound to EYPC LUVs upon addition | toxicity, cell survival (MTT) (MCF-7): essentially unaffected | toxicity, cell survival (MTT) (HeLa): essentially unaffected | MICs S. Pyogenes ([3]; ATCC 19615): 0.62 µM | MIC relative to wild-type Gramicidin A ([3]; S. Pyogenes): equivalent to or ˜2-fold higher | antibacterial activity ([3]; S. pyogenes, in words): highly potent | Sat. Conc, Lys series [4]: 72 µM | Tb3+ leakage from LUVs [5]: essentially no Tb3+ leakage; also recorded: little to no difference | MICs S. Aureus ([6]; ATCC 6538): > 10 µM | MIC relative to wild-type Gramicidin A ([6]; S. Aureus): much higher MIC | MICs S. Aureus ([6]; Table 2, standard micro-dilution): >10 ^[e] μM | apparent dissociation constant (Kd) / binding [7]: dropped by a marginal four fold | HC50 (50% haemoglobin leakage relative to 1% TritonX-100) [8]: >100 µM | proton leakage from EYPC LUVs [9]: caused proton leakage

Source: US9243037B2, “Gramicidin a mutants that function as antibiotics with improved solubility and reduced toxicity” (Trustees of Boston College, priority 2011, dated 2016)
